# Measured values taken from article PMC11277489, “Novel Piperazine Derivatives of Vindoline as Anticancer Agents” (International Journal of Molecular Sciences, 2024).
# Columns and labels:
# [1] = tested on: CCRF-CEM; test: NCI60 five-dose screen, Leukemia; format: cell-based; conditions: Homo sapiens, Leukemia, five-dose screen, read-out: GI50
# [2] = tested on: HL-60(TB); test: NCI60 five-dose screen, Leukemia; format: cell-based; conditions: Homo sapiens; HL-60(TB), Leukemia; five-dose screen; read-out: GI50
# [3] = tested on: HOP-92; test: NCI60 five-dose screen, Non-small Cell Lung Cancer; format: cell-based; conditions: Homo sapiens; HOP-92, Non-small Cell Lung Cancer; five-dose screen; read-out: GI50
# [4] = tested on: NCI-H226; test: NCI60 five-dose screen, Non-small Cell Lung Cancer; format: cell-based; conditions: Homo sapiens; NCI-H226, Non-small Cell Lung Cancer; five-dose screen; read-out: GI50
# [5] = tested on: NCI-H23; test: NCI60 five-dose screen, Non-small Cell Lung Cancer; format: cell-based; conditions: Homo sapiens; NCI-H23, Non-small Cell Lung Cancer; five-dose screen; read-out: GI50
# [6] = tested on: NCI-H460; test: NCI60 five-dose screen, Non-small Cell Lung Cancer; format: cell-based; conditions: Homo sapiens; NCI-H460, Non-small Cell Lung Cancer; five-dose screen; read-out: GI50
# [7] = tested on: NCI-H522; test: NCI60 five-dose screen, Non-small Cell Lung Cancer; format: cell-based; conditions: Homo sapiens; NCI-H522, Non-small Cell Lung Cancer; five-dose screen; read-out: GI50
# [8] = tested on: COLO 205; test: NCI60 five-dose screen, Colon Cancer; format: cell-based; conditions: Homo sapiens; COLO 205, Colon Cancer; five-dose screen; read-out: GI50
# [9] = tested on: HCC-2998; test: NCI60 five-dose screen, Colon Cancer; format: cell-based; conditions: Homo sapiens; HCC-2998, Colon Cancer; five-dose screen; read-out: GI50
# [10] = tested on: KM12; test: NCI60 five-dose screen, Colon Cancer; format: cell-based; conditions: Homo sapiens; KM12, Colon Cancer; five-dose screen; read-out: GI50
# [11] = tested on: SW-620; test: NCI60 five-dose screen, Colon Cancer; format: cell-based; conditions: Homo sapiens; SW-620, Colon Cancer; five-dose screen; read-out: GI50
# [12] = tested on: SNB-75; test: NCI60 five-dose screen, CNS Cancer; format: cell-based; conditions: Homo sapiens; SNB-75, CNS Cancer; five-dose screen; read-out: GI50
# [13] = tested on: MALME-3M; test: NCI60 five-dose screen, Melanoma; format: cell-based; conditions: Homo sapiens; MALME-3M, Melanoma; five-dose screen; read-out: GI50
# [14] = tested on: IGROV1; test: NCI60 five-dose screen, Ovarian Cancer; format: cell-based; conditions: Homo sapiens, IGROV-1; IGROV1, Ovarian Cancer; five-dose screen; read-out: GI50
# [15] = tested on: OVCAR-3; test: NCI60 five-dose screen, Ovarian Cancer; format: cell-based; conditions: Homo sapiens; OVCAR-3, Ovarian Cancer; five-dose screen; read-out: GI50
# [16] = tested on: OVCAR-5; test: NCI60 five-dose screen, Ovarian Cancer; format: cell-based; conditions: Homo sapiens; OVCAR-5, Ovarian Cancer; five-dose screen; read-out: GI50
# [17] = tested on: NCI/ADR-RES; test: NCI60 five-dose screen, Ovarian Cancer; format: cell-based; conditions: Homo sapiens, Ovarian Cancer, five-dose screen, read-out: GI50
# [18] = tested on: SK-OV-3; test: NCI60 five-dose screen, Ovarian Cancer; format: cell-based; conditions: Homo sapiens; SK-OV-3, Ovarian Cancer; five-dose screen; read-out: GI50
# [19] = tested on: 786–0; test: NCI60 five-dose screen, Renal Cancer; format: cell-based; conditions: Homo sapiens; 786–0, Renal Cancer; five-dose screen; read-out: GI50
# [20] = tested on: A498; test: NCI60 five-dose screen, Renal Cancer; format: cell-based; conditions: Homo sapiens; A498, Renal Cancer; five-dose screen; read-out: GI50
# [21] = tested on: ACHN; test: NCI60 five-dose screen, Renal Cancer; format: cell-based; conditions: Homo sapiens, Renal Cancer, five-dose screen, read-out: GI50
# [22] = tested on: CAKI-1; test: NCI60 five-dose screen, Renal Cancer; format: cell-based; conditions: Homo sapiens; CAKI-1, Renal Cancer; five-dose screen; read-out: GI50
# [23] = tested on: SN12C; test: NCI60 five-dose screen, Renal Cancer; format: cell-based; conditions: Homo sapiens, Renal Cancer, five-dose screen, read-out: GI50
# [24] = tested on: TK-10; test: NCI60 five-dose screen, Renal Cancer; format: cell-based; conditions: Homo sapiens; TK-10, Renal Cancer; five-dose screen; read-out: GI50
# [25] = tested on: DU-145; test: NCI60 five-dose screen, Prostate Cancer; format: cell-based; conditions: Homo sapiens; DU-145, Prostate Cancer; five-dose screen; read-out: GI50
# [26] = tested on: MCF7; test: NCI60 five-dose screen, Breast Cancer; format: cell-based; conditions: Homo sapiens; MCF7, Breast Cancer; five-dose screen; read-out: GI50
# [27] = tested on: T-47D; test: NCI60 five-dose screen, Breast Cancer; format: cell-based; conditions: Homo sapiens, T47D; T-47D, Breast Cancer; five-dose screen; read-out: GI50
# [28] = tested on: SR; test: NCI60 one-dose screen (10 μM), Leukemia; format: cell-based; conditions: Homo sapiens, 10 μM, Leukemia, read-out: Growth percent rate
# [29] = tested on: HOP-92; test: NCI60 one-dose screen (10 μM), Non-small Cell Lung Cancer; format: cell-based; conditions: Homo sapiens; 10 μM; HOP-92, Non-small Cell Lung Cancer; read-out: Growth percent rate
# [30] = tested on: NCI-H226; test: as above; format: cell-based; conditions: Homo sapiens; 10 μM; NCI-H226, Non-small Cell Lung Cancer; read-out: Growth percent rate
# [31] = tested on: COLO 205; test: NCI60 one-dose screen (10 μM), Colon Cancer; format: cell-based, human; conditions: Homo sapiens; 10 μM; COLO 205, Colon Cancer; read-out: Growth percent rate
# [32] = tested on: HCT-15; test: NCI60 one-dose screen (10 μM), Colon Cancer; format: cell-based; conditions: Homo sapiens; 10 μM; HCT-15, Colon Cancer; read-out: Growth percent rate
# [33] = tested on: SF-539; test: NCI60 one-dose screen (10 μM), CNS Cancer; format: cell-based, human; conditions: Homo sapiens; 10 μM; SF-539, CNS Cancer; read-out: Growth percent rate
# [34] = tested on: LOX IMVI; test: NCI60 one-dose screen (10 μM), Melanoma; format: cell-based, human; conditions: Homo sapiens; 10 μM; LOX IMVI, Melanoma; read-out: Growth percent rate
# [35] = tested on: UACC-62; test: NCI60 one-dose screen (10 μM), Melanoma; format: cell-based; conditions: Homo sapiens; 10 μM; UACC-62, Melanoma; read-out: Growth percent rate
# [36] = tested on: OVCAR-5; test: NCI60 one-dose screen (10 μM), Ovarian Cancer; format: cell-based; conditions: Homo sapiens; 10 μM; OVCAR-5, Ovarian Cancer; read-out: Growth percent rate
# [37] = tested on: SK-OV-3; test: NCI60 one-dose screen (10 μM), Ovarian Cancer; format: cell-based; conditions: Homo sapiens; 10 μM; SK-OV-3, Ovarian Cancer; read-out: Growth percent rate
# [38] = tested on: RXF 393; test: NCI60 one-dose screen (10 μM), Renal Cancer; format: cell-based, human; conditions: Homo sapiens; 10 μM; RXF 393, Renal Cancer; read-out: Growth percent rate
# [39] = tested on: UO-31; test: NCI60 one-dose screen (10 μM), Renal Cancer; format: cell-based; conditions: Homo sapiens; 10 μM; UO-31, Renal Cancer; read-out: Growth percent rate
# [40] = tested on: PC-3; test: NCI60 one-dose screen (10 μM), Prostate Cancer; format: cell-based; conditions: Homo sapiens; 10 μM; PC-3, Prostate Cancer; read-out: Growth percent rate
# [41] = tested on: MDA-MB-231/ATCC; test: NCI60 one-dose screen (10 μM), Breast Cancer; format: cell-based, human; conditions: Homo sapiens; 10 μM; MDA-MB-231/ATCC, Breast Cancer; read-out: Growth percent rate
# [42] = tested on: HS 578T; test: NCI60 one-dose screen (10 μM), Breast Cancer; format: cell-based; conditions: Homo sapiens; 10 μM; HS 578T, Breast Cancer; read-out: Growth percent rate
# [43] = tested on: BT-549; test: NCI60 one-dose screen (10 μM), Breast Cancer; format: cell-based; conditions: Homo sapiens; 10 μM; BT-549, Breast Cancer; read-out: Growth percent rate
# [44] = tested on: T-47D; test: NCI60 one-dose screen (10 μM), Breast Cancer; format: cell-based; conditions: Homo sapiens, T47D; 10 μM; T-47D, Breast Cancer; read-out: Growth percent rate
# [45] = tested on: MDA-MB-468; test: NCI60 one-dose screen (10 μM), Breast Cancer; format: cell-based; conditions: Homo sapiens; 10 μM; MDA-MB-468, Breast Cancer; read-out: Growth percent rate
structure (smiles),measurement,setting,value
CC[C@]12C=CCN3CC[C@@]4(c5ccc(OC)cc5N(C)[C@H]4[C@@](O)(C(=O)OC)[C@@H]1OC(=O)CCC(=O)N1CCN(Cc4ccc(C(F)(F)F)cc4)CC1)[C@@H]32 [Compound 29],GI50,[1],11.8 µM
same,GI50,[2],12.9 µM
same,GI50,[3],4.27 µM
same,GI50,[4],9.77 µM
same,GI50,[5],12 µM
same,GI50,[6],10.5 µM
same,GI50,[7],12.6 µM
same,GI50,[8],7.08 µM
same,GI50,[9],12.9 µM
same,GI50,[10],11.8 µM
same,GI50,[11],11.5 µM
same,GI50,[12],15.5 µM
same,GI50,[13],11.5 µM
same,GI50,[14],10.7 µM
same,GI50,[15],6.46 µM
same,GI50,[16],14.5 µM
same,GI50,[17],12.3 µM
same,GI50,[18],12.6 µM
same,GI50,[19],12.3 µM
same,GI50,[20],12.3 µM
same,GI50,[21],10.7 µM
same,GI50,[22],8.71 µM
same,GI50,[23],11.5 µM
same,GI50,[24],12.3 µM
same,GI50,[25],11.2 µM
same,GI50,[26],5.62 µM
same,GI50,[27],5.25 µM
same,activity at 10 µM,[28],-48.3%
same,activity at 10 µM,[29],-22.6%
same,activity at 10 µM,[30],16.7%
same,activity at 10 µM,[31],-91%
same,activity at 10 µM,[32],15%
same,activity at 10 µM,[33],11.7%
same,activity at 10 µM,[34],-7.07%
same,activity at 10 µM,[35],-19.7%
same,activity at 10 µM,[36],15.2%
same,activity at 10 µM,[37],12.4%
same,activity at 10 µM,[38],10.2%
same,activity at 10 µM,[39],5.16%
same,activity at 10 µM,[40],2.13%
same,activity at 10 µM,[41],3.02%
same,activity at 10 µM,[42],0.42%
same,activity at 10 µM,[43],-54.5%
same,activity at 10 µM,[44],24%
same,activity at 10 µM,[45],-20.5%
